# Measured values reported in ChEMBL document CHEMBL3739376, “Synthesis and biological evaluation of N-(4-phenylthiazol-2-yl)cinnamamide derivatives as novel potential anti-tumor agents” (Medchemcomm, 2015).
# Activity calls are given as the source filed them. The rule behind the calls is not given here.
# Key:
# K562 [1] = assay: Cytotoxicity against human K562 cells assessed as inhibition of cell proliferation after 96 hrs by MTT assay; format: functional, cell-based; details: K562, 96 h
# MDA-MB-468 = assay: Cytotoxicity against human MDA-MB-468 cells assessed as inhibition of cell proliferation after 96 hrs by MTT assay; format: functional, cell-based; details: MDA-MB-468, 96 h
# [2] = Cytotoxicity against human OCI-LY1 cells assessed as inhibition of cell proliferation after 96 hrs by MTT assay; format: functional, cell-based; details: OCI-Ly1, 96 h
# [3] = Cytotoxicity against human Bel7402 cells assessed as inhibition of cell proliferation after 96 hrs by MTT assay; format: functional, cell-based; details: Bel-7402, 96 h
# Jurkat [4] = assay: Cytotoxicity against human Jurkat cells assessed as inhibition of cell proliferation after 96 hrs by MTT assay; format: functional, cell-based
# Vero = assay: Cytotoxicity against african green monkey Vero cells assessed as inhibition of cell proliferation after 96 hrs by MTT assay; format: cell-based; details: Chlorocebus sabaeus
# A549 [5] = assay: Cytotoxicity against human A549 cells assessed as inhibition of cell proliferation after 96 hrs by MTT assay; format: functional, cell-based; details: A549, 96 h
# MCF7 = assay: Cytotoxicity against human MCF7 cells assessed as inhibition of cell proliferation after 96 hrs by MTT assay; format: functional, cell-based; details: MCF7, 96 h
# [6] = Cytotoxicity against human MV411 cells assessed as inhibition of cell proliferation after 96 hrs by MTT assay; format: functional, cell-based; details: MV4-11, 96 h
# HEK293 = assay: Cytotoxicity against HEK293 cells assessed as inhibition of cell proliferation after 96 hrs by MTT assay; format: cell-based; details: Homo sapiens, HEK293, 96 h
# [7] = Cytotoxicity against human LO2 cells assessed as inhibition of cell proliferation after 96 hrs by MTT assay; format: cell-based; details: L02, 96 h
# Bel-7402 [8] = assay: Induction of apoptosis in human Bel7402 cells at 10 uM after 48 hrs by propidium iodide staining-based fluorescence microscopic analysis; format: functional
# Bel-7402 [9] = assay: Induction of apoptosis in human Bel7402 cells after 48 hrs by propidium iodide staining-based fluorescence microscopic analysis; format: functional, cell-based
# A549 [10] = assay: Induction of apoptosis in human A549 cells at 3.3 uM after 48 hrs by propidium iodide staining-based fluorescence microscopic analysis; format: functional
# Bel-7402 [11] = assay: Induction of apoptosis in human Bel7402 cells assessed as condensed nuclei at 0.37 to 10 uM after 48 hrs by […] staining-based fluorescence microscopic analysis; format: functional, cell-based
# Bel-7402 [12] = assay: Induction of apoptosis in human Bel7402 cells at 0.37 uM after 48 hrs by propidium iodide staining-based fluorescence microscopic analysis; format: functional
# Bel-7402 [13] = assay: Induction of apoptosis in human Bel7402 cells at 1.1 uM after 48 hrs by propidium iodide staining-based fluorescence microscopic analysis; format: functional
# K562 [14] = assay: Induction of apoptosis in human K562 cells at 3.3 uM after 48 hrs by propidium iodide staining-based fluorescence microscopic analysis; format: functional
# Bel-7402 [15] = assay: Induction of apoptosis in human Bel7402 cells at 3.3 uM after 48 hrs by propidium iodide staining-based fluorescence microscopic analysis; format: functional
# Jurkat [16] = assay: Induction of apoptosis in human Jurkat cells at 3.3 uM after 48 hrs by propidium iodide staining-based fluorescence microscopic analysis; format: functional
compound,measurement,setting,value
Cc1cc(C)c(-c2csc(NC(=O)/C=C/c3ccc(Cl)c(C(F)(F)F)c3)n2)c(C)c1,IC50,K562 [1],3.06 µM
O=C(/C=C/c1ccc(N2CCOCC2)cc1)Nc1nc(-c2ccc(F)cc2)cs1,IC50,K562 [1],7.3 µM
COc1cc(/C=C/C(=O)Nc2nc(-c3c(C)cc(C)cc3C)cs2)cc(OC)c1OC,IC50,K562 [1],11.8 µM
Cc1ccccc1-c1csc(NC(=O)/C=C/c2ccc(N3CCOCC3)cc2)n1,IC50,K562 [1],3.74 µM
COc1ccc(-c2csc(NC(=O)/C=C/c3ccc(N4CCOCC4)cc3)n2)cc1,IC50,K562 [1],14.6 µM
Cc1ccc(-c2csc(NC(=O)/C=C/c3ccc(N4CCOCC4)cc3)n2)c(C)c1,IC50,K562 [1],5.38 µM
Cc1cc(C)c(-c2csc(NC(=O)/C=C/c3ccc(C(F)(F)F)cc3)n2)c(C)c1,IC50,MDA-MB-468,1.53 µM
same,IC50,[2],3.69 µM
same,IC50,[3],34.1 µM
same,IC50,Jurkat [4],1.15 µM
same,IC50,Vero,> 90 µM
same,IC50,A549 [5],0.2 µM
same,IC50,MCF7,> 30 µM
same,IC50,K562 [1],0.48 µM
same,IC50,[6],3.65 µM
same,IC50,HEK293,> 90 µM
same,IC50,[7],> 90 µM
Cc1cc(C)c(-c2csc(NC(=O)/C=C/c3ccc(N4CCOCC4)cc3)n2)c(C)c1,IC50,MDA-MB-468,> 30 µM
same,IC50,[2],11.7 µM
same,IC50,[3],10.6 µM
same,IC50,Jurkat [4],9.05 µM
same,IC50,Vero,> 90 µM
same,IC50,A549 [5],4.29 µM
same,IC50,MCF7,20 µM
same,IC50,K562 [1],0.61 µM
same,IC50,[6],6.42 µM
same,IC50,HEK293,> 90 µM
same,IC50,[7],> 90 µM
Cc1cc(C)c(-c2csc(NC(=O)/C=C/c3ccc(C(C)(C)C)cc3)n2)c(C)c1,IC50,MDA-MB-468,> 30 µM
same,Activity,Bel-7402 [8],61.35%
same,Activity,Bel-7402 [9],Dose-dependent effect
same,IC50,[2],1.54 µM
same,IC50,[3],0.74 µM
same,IC50,Jurkat [4],0.035 µM
same,IC50,Vero,> 90 µM
same,Activity,A549 [10],23.13%
same,IC50,A549 [5],0.27 µM
same,Activity,Bel-7402 [11],Active
same,Activity,Bel-7402 [12],5.37%
same,IC50,MCF7,> 30 µM
same,Activity,Bel-7402 [13],25.37%
same,Activity,K562 [14],21.04%
same,IC50,K562 [1],0.18 µM
same,IC50,[6],0.11 µM
same,Activity,Bel-7402 [15],48.15%
same,IC50,HEK293,> 90 µM
same,Activity,Jurkat [16],14.64%
same,IC50,[7],> 90 µM
CC(=O)O[C@H]1C(=O)[C@@]2(C)[C@H]([C@H](OC(=O)c3ccccc3)[C@]3(O)C[C@H](OC(=O)[C@H](O)[C@@H](NC(=O)c4ccccc4)c4ccccc4)C(C)=C1C3(C)C)[C@]1(OC(C)=O)CO[C@@H]1C[C@@H]2O [PACLITAXEL],IC50,MDA-MB-468,0.31 µM
same,IC50,[2],0.18 µM
same,IC50,[3],> 10 µM
same,IC50,Jurkat [4],0.69 µM
same,IC50,A549 [5],0.74 µM
same,IC50,K562 [1],1.26 µM
same,IC50,[6],0.75 µM
COc1cc(F)c(-c2csc(NC(=O)/C=C/c3ccc(N4CCOCC4)cc3)n2)c(F)c1,IC50,K562 [1],30.3 µM
CCOc1cc(C)c(-c2csc(NC(=O)/C=C/c3ccc(N4CCOCC4)cc3)n2)c(C)c1,IC50,K562 [1],2.09 µM
Cc1cc(C)c(-c2csc(NC(=O)/C=C/c3ccc([N+](=O)[O-])cc3)n2)c(C)c1,IC50,K562 [1],32.2 µM
Cc1cc(C)c(-c2csc(NC(=O)/C=C/c3ccccc3)n2)c(C)c1,IC50,K562 [1],40.4 µM
Cc1cccc(-c2csc(NC(=O)/C=C/c3ccc(N4CCOCC4)cc3)n2)c1,IC50,K562 [1],7.51 µM
COc1ccccc1-c1csc(NC(=O)/C=C/c2ccc(N3CCOCC3)cc2)n1,IC50,K562 [1],> 90 µM
O=C(/C=C/c1ccc(N2CCOCC2)cc1)Nc1nc(-c2ccccc2)cs1,IC50,K562 [1],12.6 µM
